Results reported in patent US12570642B2, “GLP-IR modulating compounds” (Gilead Sciences, Inc., priority 2021, dated 2026).

Biological target: GLP-1R (Homo sapiens, UniProt P43220)
Experiment: GLP-1R Activation - cAMP Assay
Type: cell-based
Conditions: cAMP increase in CHO cells stably expressing GLP-1R; each compound run on one of the two cAMP assays (Assay 1 or Assay 2, not specified)
Method in brief: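 CHO cells stably expressing GLP-1R, plated at 1,000 cells/well overnight, then equilibrated 1 h in HBSS with 20 mM Hepes and 0.1% BSA. Agonist added as 10-point dose response for 30 min at 37 °C. cAMP measured by HTRF (Cisbio Gs Dynamic kit); EC50 from sigmoidal fit.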

Sequence of GLP-1R (P43220 24-463): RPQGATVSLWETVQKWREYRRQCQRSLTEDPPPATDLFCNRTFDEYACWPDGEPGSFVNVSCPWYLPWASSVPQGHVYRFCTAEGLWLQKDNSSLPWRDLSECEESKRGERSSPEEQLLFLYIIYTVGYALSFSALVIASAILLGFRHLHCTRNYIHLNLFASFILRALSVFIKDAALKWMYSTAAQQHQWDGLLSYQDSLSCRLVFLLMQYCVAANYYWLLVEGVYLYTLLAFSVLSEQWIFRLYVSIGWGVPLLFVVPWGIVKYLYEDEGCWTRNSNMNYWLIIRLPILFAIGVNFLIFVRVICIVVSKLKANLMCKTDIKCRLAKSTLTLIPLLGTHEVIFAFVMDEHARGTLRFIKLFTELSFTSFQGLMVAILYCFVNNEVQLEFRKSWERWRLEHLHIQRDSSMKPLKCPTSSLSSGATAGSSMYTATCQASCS

**Q.** Which EC50 does the source give for `CO[C@@H](C)[C@H](C)n1c(Cc2cc(F)c(-c3cccc(OCc4ccc(Cl)cc4F)n3)cc2F)nc2ccc(C(=O)O)cc21` [Example 564, 2-(4-(6-((4-chloro-2-fluorobenzyl)oxy)pyridin-2-yl)-2,5-difluorobenzyl)-1-((2S,3S)-3-methoxybutan-2-yl)-1H-benzo[d]imidazole-6-carboxylic acid] here?
**A.** 2.29 nM

**Q.** For `CO[C@@]1(C)COC[C@H]1n1c(Cc2cc(F)c(-c3cccc(OCc4ccc(Cl)cc4F)n3)cc2F)nc2ccc(C(=O)O)cc21` (single isomer, unassigned) [Example 474], which EC50 is on record?
**A.** 0.181 nM

**Q.** With `C[C@H]1COC[C@H]1n1c(Cc2cc(F)c(-c3cccc(OCc4ccc(Cl)cc4F)n3)cc2F)nc2ccc(C(=O)O)cc21` [Example 472, 2-(4-(6-((4-chloro-2-fluorobenzyl)oxy)pyridin-2-yl)-2,5-difluorobenzyl)-1-((3S,4R)-4-methyltetrahydrofuran-3-yl)-1H-benzo[d]imidazole-6-carboxylic acid] as the compound, how does the EC50 read?
**A.** 0.069 nM

**Q.** With `CC1(C)COC[C@H]1n1c(Cn2cc(F)c(-c3ccc(F)c(OCc4ccc(C#N)cc4F)n3)cc2=O)nc2ccc(C(=O)O)cc21` [Example 328, (S)-2-((6-((4-cyano-2-fluorobenzyl)oxy)-5,5′-difluoro-2′-oxo-[2,4′-bipyridin]-1′(2′H)-yl)methyl)-1-(4,4-dimethyltetrahydrofuran-3-yl)-1H-benzo[d]imidazole-6-carboxylic acid] as the compound, how does the EC50 read?
**A.** 0.555 nM

**Q.** `CC1(C)COC[C@H]1n1c(Cc2ccc(-c3ccc(F)c(OCc4ccc(C#N)cc4)n3)cc2F)nc2ccc(C(=O)O)cc21` [Example 370, (S)-2-(4-(6-((4-cyanobenzyl)oxy)-5-fluoropyridin-2-yl)-2-fluorobenzyl)-1-(4,4-dimethyltetrahydrofuran-3-yl)-1H-benzo[d]imidazole-6-carboxylic acid] was tested. Which EC50 did it give?
**A.** 0.042 nM

**Q.** How did the EC50 turn out when `C[C@H]1COC[C@H]1n1c(Cc2cc(F)c(-c3ccnc(OCc4ccc(Cl)cc4F)n3)cc2F)nc2ccc(C(=O)O)cc21` [Example 484, 2-(4-(2-((4-chloro-2-fluorobenzyl)oxy)pyrimidin-4-yl)-2,5-difluorobenzyl)-1-((3S,4R)-4-methyltetrahydrofuran-3-yl)-1H-benzo[d]imidazole-6-carboxylic acid] was run?
**A.** 0.155 nM

**Q.** How did the EC50 turn out when `COCCn1c(Cc2cc(F)c(-c3ccc(F)c(OCc4ccc(C#N)cc4F)n3)cc2F)nc2ccc(C(=O)O)c(F)c21` [Example 125, 2-(4-(6-((4-cyano-2-fluorobenzyl)oxy)-5-fluoropyridin-2-yl)-2,5-difluorobenzyl)-7-fluoro-1-(2-methoxyethyl)-1H-benzo[d]imidazole-6-carboxylic Acid] was run?
**A.** 0.112 nM

**Q.** `N#Cc1ccc(COc2cccc(-c3cc(F)c(Cc4nc5ccc(C(=O)O)cc5n4C4COC[C@H]4CO)cc3F)n2)c(F)c1` (mixture of isomers) [Example 217, 2-(4-(6-((4-cyano-2-fluorobenzyl)oxy)pyridin-2-yl)-2,5-difluorobenzyl)-1-((3S,4R)-4-(hydroxymethyl)tetrahydrofuran-3-yl)-1H-benzo[d]imidazole-6-carboxylic acid] was tested. Which EC50 did it give?
**A.** 1.11 nM

**Q.** Which EC50 does the source give for `COCCn1c(Cc2cc(F)c(-c3cc(Cl)cc(OCc4ccc(C#N)cc4F)n3)cc2F)nc2ccc(C(=O)O)cc21` [Example 42, 2-(4-(4-chloro-6-((4-cyano-2-fluorobenzyl)oxy)pyridin-2-yl)-2,5-difluorobenzyl)-1-(2-methoxyethyl)-1H-benzo[d]imidazole-6-carboxylic Acid] here?
**A.** 4.25 nM

**Q.** How did the EC50 turn out when `CC1(C)COC[C@H]1n1c(Cc2cc(F)c(-c3ccc(F)c(OCc4cc(F)c(C#N)cc4F)n3)cc2F)nc2ccc(C(=O)O)cc21` [Example 491, (S)-2-(4-(6-((4-cyano-2,5-difluorobenzyl)oxy)-5-fluoropyridin-2-yl)-2,5-difluorobenzyl)-1-(4,4-dimethyltetrahydrofuran-3-yl)-1H-benzo[d]imidazole-6-carboxylic acid] was run?
**A.** 0.079 nM

**Q.** How did the EC50 turn out when `CC1(C)COC[C@H]1n1c(Cc2cc(F)c(-c3cccc(OCc4cc(F)c(F)cc4F)n3)cc2F)nc2ccc(C(=O)O)cc21` [Example 455, (S)-2-(2,5-difluoro-4-(6-((2,4,5-trifluorobenzyl)oxy)pyridin-2-yl)benzyl)-1-(4,4-dimethyltetrahydrofuran-3-yl)-1H-benzo[d]imidazole-6-carboxylic acid] was run?
**A.** 0.126 nM

**Q.** Which EC50 does the source give for `CC1(C)COCC1n1c(Cc2cc(F)c(-c3cccc(OCc4ccc(C(F)F)cc4F)n3)cc2F)nc2ccc(C(=O)O)cc21` (stereo not drawn) [Example 21, 2-(4-(6-((4-(difluoromethyl)-2-fluorobenzyl)oxy)pyridin-2-yl)-2,5-difluorobenzyl)-1-(4,4-dimethyltetrahydrofuran-3-yl)-1H-benzo[d]imidazole-6-carboxylic Acid] here?
**A.** 0.11 nM

**Q.** Which EC50 does the source give for `N#Cc1ccc(COc2cccc(-c3cc(F)c(Cc4nc5ccc(C(=O)O)cc5n4N4CCCC4)cc3F)n2)c(F)c1` [Example 67, 2-(4-(6-((4-cyano-2-fluorobenzyl)oxy)pyridin-2-yl)-2,5-difluorobenzyl)-1-(pyrrolidin-1-yl)-1H-benzo[d]imidazole-6-carboxylic Acid] here?
**A.** 7.25 nM

**Q.** How did the EC50 turn out when `CC1(C)COCC1n1c(Cc2cc(F)c(-c3ccnc(OCc4ccc(C(F)F)cc4F)n3)cc2F)nc2c(F)cc(C(=O)O)cc21` (stereo not drawn) [Example 504, 2-(4-(2-((4-(difluoromethyl)-2-fluorobenzyl)oxy)pyrimidin-4-yl)-2,5-difluorobenzyl)-1-(4,4-dimethyltetrahydrofuran-3-yl)-4-fluoro-1H-benzo[d]imidazole-6-carboxylic acid] was run?
**A.** 0.148 nM

**Q.** With `COc1cc(Cl)ncc1COc1nc(-c2cc(F)c(Cc3nc4ccc(C(=O)O)cc4n3[C@@H]3COCC3(C)C)c(F)c2F)ccc1F` [Example 341, (S)-2-(4-(6-((6-chloro-4-methoxypyridin-3-yl)methoxy)-5-fluoropyridin-2-yl)-2,3,6-trifluorobenzyl)-1-(4,4-dimethyltetrahydrofuran-3-yl)-1H-benzo[d]imidazole-6-carboxylic acid] as the compound, how does the EC50 read?
**A.** 0.024 nM

**Q.** For `COCCn1c(Cc2cc(F)c(-c3cccc(OCc4ccc(-c5ccnn5C)cc4F)n3)cc2F)nc2ccc(C(=O)O)cc21` [Example 101, 2-(2,5-difluoro-4-(6-((2-fluoro-4-(1-methyl-1H-pyrazol-5-yl)benzyl)oxy)pyridin-2-yl)benzyl)-1-(2-methoxyethyl)-1H-benzo[d]imidazole-6-carboxylic Acid], which EC50 is on record?
**A.** 1.46 nM

**Q.** Which EC50 does the source give for `COCCn1c(Cc2cc(F)c(-c3cc(N)nc(OCc4ccc(C#N)cc4F)n3)cc2F)nc2ccc(C(=O)O)cc21` [Example 45, 2-(4-(6-amino-2-((4-cyano-2-fluorobenzyl)oxy)pyrimidin-4-yl)-2,5-difluorobenzyl)-1-(2-methoxyethyl)-1H-benzo[d]imidazole-6-carboxylic Acid] here?
**A.** 16.7 nM

**Q.** For `CC1(C)COC[C@H]1n1c(Cc2ccc(-c3ccc(F)c(OCc4ccc(C#N)cc4F)n3)cc2F)nc2c(F)cc(C(=O)O)cc21` [Example 337, (S)-2-(4-(6-((4-cyano-2-fluorobenzyl)oxy)-5-fluoropyridin-2-yl)-2-fluorobenzyl)-1-(4,4-dimethyltetrahydrofuran-3-yl)-4-fluoro-1H-benzo[d]imidazole-6-carboxylic acid], which EC50 is on record?
**A.** 0.025 nM

**Q.** `N#Cc1ccc(COc2cccc(-c3cc(F)c(Cc4nc5ccc(C(=O)O)cc5n4[C@H]4COC[C@@H]4C(F)F)cc3F)n2)c(F)c1` (single isomer, unassigned) [Example 262] was tested. Which EC50 did it give?
**A.** 1.07 nM

**Q.** How did the EC50 turn out when `Cc1cc(Cc2nc3ccc(C(=O)O)cc3n2[C@@H]2COCC2(C)C)c(Cl)cc1-c1cccc(OCc2cnc(-n3ccnn3)cc2Cl)n1` [Example 156, (S)-2-(2-chloro-4-(6-((4-chloro-6-(1H-1,2,3-triazol-1-yl)pyridin-3-yl)methoxy)pyridin-2-yl)-5-methylbenzyl)-1-(4,4-dimethyltetrahydrofuran-3-yl)-1H-benzo[d]imidazole-6-carboxylic Acid] was run?
**A.** 0.064 nM

**Q.** How did the EC50 turn out when `COCCn1c(Cc2cc(F)c(-c3cc(OC)cc(OCc4ccc(C#N)cc4F)n3)cc2F)nc2ccc(C(=O)O)cc21` [Example 43, 2-(4-(6-((4-cyano-2-fluorobenzyl)oxy)-4-methoxypyridin-2-yl)-2,5-difluorobenzyl)-1-(2-methoxyethyl)-1H-benzo[d]imidazole-6-carboxylic Acid] was run?
**A.** 20.8 nM

**Q.** How did the EC50 turn out when `COCCn1c(Cc2cc(F)c(-c3cccc(OCc4cc(F)ccc4F)n3)cc2F)nc2ccc(C(=O)O)cc21` [Example 26, 2-(4-(6-((2,5-difluorobenzyl)oxy)pyridin-2-yl)-2,5-difluorobenzyl)-1-(2-methoxyethyl)-1H-benzo[d]imidazole-6-carboxylic Acid] was run?
**A.** 18.7 nM

**Q.** How did the EC50 turn out when `CC1(C)COC[C@H]1n1c(Cc2cc(F)c(-c3cccc(OCc4ccc(Cl)cc4Cl)n3)cc2F)nc2ccc(C(=O)O)cc21` [Example 399, (S)-2-(4-(6-((2,4-dichlorobenzyl)oxy)pyridin-2-yl)-2,5-difluorobenzyl)-1-(4,4-dimethyltetrahydrofuran-3-yl)-1H-benzo[d]imidazole-6-carboxylic acid] was run?
**A.** 0.124 nM

**Q.** Which EC50 does the source give for `COCCn1c(C(F)c2cc(F)c(-c3cccc(OCc4ccc(C#N)cc4F)n3)cc2F)nc2ccc(C(=O)O)cc21` (stereo not drawn) [Example 51] here?
**A.** 0.83 nM

**Q.** Which EC50 does the source give for `CC1(C)COC[C@H]1n1c(Cc2cc(F)c(-c3cccc(OCc4ccc(C(F)F)cc4F)n3)cc2F)nc2c(F)cc(C(=O)O)cc21` (single isomer, unassigned) [Example 502A] here?
**A.** 0.281 nM

**Q.** Which EC50 does the source give for `CC1(C)COC[C@H]1n1c(Cc2cc(F)c(-c3cccc(OCc4cnc(-n5ccnn5)cc4Cl)n3)cc2F)nc2c(F)cc(C(=O)O)cc21` [Example 171, (S)-2-(4-(6-((4-chloro-6-(1H-1,2,3-triazol-1-yl)pyridin-3-yl)methoxy)pyridin-2-yl)-2,5-difluorobenzyl)-1-(4,4-dimethyltetrahydrofuran-3-yl)-4-fluoro-1H-benzo[d]imidazole-6-carboxylic Acid] here?
**A.** 0.05 nM

**Q.** For `CC1(C)COC[C@H]1n1c(Cc2c(F)cc(-c3nc(OCc4ccc(C#N)cc4)c(F)cc3F)cc2F)nc2ccc(C(=O)O)cc21` [Example 151, (S)-2-(4-(6-((4-cyanobenzyl)oxy)-3,5-difluoropyridin-2-yl)-2,6-difluorobenzyl)-1-(4,4-dimethyltetrahydrofuran-3-yl)-1H-benzo[d]imidazole-6-carboxylic Acid], which EC50 is on record?
**A.** 0.234 nM
